Assay results from patent US9526915B2, “Methods for regulating cell mitosis by inhibiting serine/threonine phosphatase” (priority 2008, dated 2016).

Legend:
[1] = molecular target: T1, PP2A (Homo sapiens, UniProt P67775); assay: PP2A activity in DAOY cells (immunoprecipitated PP2A/Akt-1 complexes, Malachite Green assay); format: cell-based; set-up: PP2A activity from the immunoprecipitated complexes was assayed; endogenous in cells; host or cells: DAOY cells; conditions: 0.15, 0.25, 0.3 μM, 1 hour
Method: Cultured DAOY cells were plated in […] flasks. When the cells were 80% confluent, the media was replaced with media containing either 0.15 μM Compound 102, 0.25 μM Compound 102, 0.3 μM Compound 102, or an equivalent volume of PBS vehicle. After 1 hour, the cells were washed three times in a 0.9% normal saline solution. T-PER solution was added to the cells, and cells were prepared for protein extraction. Lysates from each treatment group containing 300 μg of protein were applied to a spin column (Catch and Release v2.0 Reversible Immunoprecipitation System, Millipore, Billerica, Mass.) for immunoprecipitation of PP2A/Akt-1 kinase protein complexes using polyclonal anti-rabbit Akt-1 antibody (Cell Signaling Technology, Danvers, Mass.). PP2A activity from the immunoprecipitated complexes was assayed using a Malachite Green Phosphatase Assay specific for serine/threonine phosphatase activity (Ser/Thr Phosphatase Assay Kit 1, Millipore, Billerica, Mass.).
Target sequence in this assay (P67775 whole entry): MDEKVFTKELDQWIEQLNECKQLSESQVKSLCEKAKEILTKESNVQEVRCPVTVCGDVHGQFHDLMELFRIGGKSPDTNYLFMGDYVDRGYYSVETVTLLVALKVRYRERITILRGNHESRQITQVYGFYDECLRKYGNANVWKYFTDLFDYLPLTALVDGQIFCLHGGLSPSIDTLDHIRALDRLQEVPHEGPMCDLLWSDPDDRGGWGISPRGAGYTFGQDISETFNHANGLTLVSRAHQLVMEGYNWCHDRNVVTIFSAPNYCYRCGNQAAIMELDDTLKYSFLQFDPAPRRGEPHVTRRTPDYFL
Target sequence in this assay (P30153 2-589 partner limits assumed): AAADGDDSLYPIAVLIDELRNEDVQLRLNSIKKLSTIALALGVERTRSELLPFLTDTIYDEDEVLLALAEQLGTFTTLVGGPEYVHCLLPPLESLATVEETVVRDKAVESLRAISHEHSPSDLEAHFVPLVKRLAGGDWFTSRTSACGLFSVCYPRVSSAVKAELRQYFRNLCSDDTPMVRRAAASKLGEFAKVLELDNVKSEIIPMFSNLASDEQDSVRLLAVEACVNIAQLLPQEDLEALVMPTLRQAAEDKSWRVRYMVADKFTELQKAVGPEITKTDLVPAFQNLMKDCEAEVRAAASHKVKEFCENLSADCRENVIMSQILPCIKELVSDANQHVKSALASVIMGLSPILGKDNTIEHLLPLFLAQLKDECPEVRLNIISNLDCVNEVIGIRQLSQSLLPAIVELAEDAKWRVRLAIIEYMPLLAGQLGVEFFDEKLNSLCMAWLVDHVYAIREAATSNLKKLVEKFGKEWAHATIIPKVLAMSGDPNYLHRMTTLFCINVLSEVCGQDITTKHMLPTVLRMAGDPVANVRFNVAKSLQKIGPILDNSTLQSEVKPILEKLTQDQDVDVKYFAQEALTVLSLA

[2] = system: U373 cells; assay: Cell cycle distribution of U373 cells by FACS; format: cell-based, human; conditions: U373, 48 hours
Method: Cells in unsynchronized logarithmic growth were exposed to vehicle or drug and adherent cells and cells in the media were collected. Harvested cells were fixed with 70% cold ethanol for 20 min at −20 degrees, washed with PBS, and stained with 10 ug/ml of PI and 1 ug/ml RNAse in TBS for 30 minutes and analyzed by FACS. A, Flow cytometry profiles of U87 cells after exposures to DMSO only, compound 102 only, 5 uM; TMZ only, 25 uM; compound 102 with TMZ combination, doxorubicin only, 2.0 uM and compound 102 with doxorubicin combination. B, Flow cytometry profiles of U373 cells. Exposures as in A, and C, Schema of proposed mechanisms of compound 102 enhancement of cancer chemotherapy.
We analyzed cell cycle patterns of U87MG and U373 cells 48 hours after exposure to TMZ or DOX alone and in combination with compound 102.

[3] = molecular target: T1, PP2A; assay: PP2A activity in U87 xenografts and normal brain after i.p. injection; format: in vivo, SCID mice; set-up: PP2A activity in U87 s.c. xenografts (blue) and in normal brain tissue (yellow) of SCID mice; from tissue; host or cells: U87 s.c. xenografts and normal brain tissue of SCID mice; conditions: single dose 1.5 mg/kg i.p.
Method: PP2A activity in U87 s.c. xenografts (blue) and in normal brain tissue (yellow) of SCID mice at different times after i.p. injection of 1.5 mg/kg compound 102 (one mouse per point; each lysate was measured in triplicate: mean and s.d.)
Recent work led to the discovery that treatment with the compound, compound 100, and several homologs inhibit the serine/threonine protein phosphatases PP2A (FIG. 1). Compound 102 inhibits PP2A (IC50=˜0.4 μM) more potently than PP1 (IC50=˜80 μM) (FIG. 2). Associated with their inhibition of PP2A, Compound 100 and homologs inhibit a variety of human cancer cell types growing in cell culture and growing in vivo as xenografts implanted subcutaneously in SCID mice (FIG. 3 and FIG. 4). […] Death of these cancer cells is associated with profound disruption of microtubular structures. Such patterns of disordered microtubules during mitosis have been noted after exposure of cancer cells to spindle toxins include such vincristine, vinblastine, taxol, taxotere, ionizing radiation, and DNA damaging agents including anthracyclines and the platinum based compounds. The morphologic appearance of cells displaying these characteristics has been called the mitotic catastrophe phenotype (Castedo et al 2004).
Target sequence in this assay (P67775 whole entry): as the sequence (P67775 whole entry) above

CC(C)(C)OC(=O)N1CCN(C(=O)C2C(C(=O)O)[C@H]3CC[C@@H]2O3)CC1 (stereo partly drawn) [Compound 102]
PP2A activity in DAOY cell line [1]: Inhibition
G1 phase cells ([2]; compound 102 5 uM, TMZ 25 uM, doxorubicin 2.0 uM): no effect
G2/M phase cells ([2]; same concentrations): no effect
S phase cells ([2]; same concentrations): no effect
PP2A activity in normal brain tissue [3]: inhibits PP2A activity
PP2A activity in s.c. U87 MG xenografts [3]: inhibits PP2A activity
